In US20240041877A1, “DOSAGE REGIME AND METHOD FOR TREATING PULMONARY ARTERIAL HYPERTENSION” (Altavant Sciences GmbH, priority 2019, published 2024):

Assay: Part 2 (MAD): plasma pharmacokinetics after BID oral KAR5585 for 14 days (incl. accumulation ratios and dose proportionality)
Details: for AUC0-12, Day 1 / AUC0-24, Day 14: mean
[1] = 100 mg KAR5585 BID, fasted, Part 2 Cohort 1
[2] = 100 mg KAR5585 BID, fed, Cohort 2
[3] = 100 mg KAR5585 BID, fed, Part 2 Cohort 2
[4] = 100 mg/dose Fasted Cohort 1, Day 1 AM, Geo. Mean
[5] = 100 mg/dose Fasted Cohort 1, Day 1 AM, Mean
[6] = 100 mg/dose Fasted Cohort 1, Day 14, Geo. Mean
[7] = 100 mg/dose Fasted Cohort 1, Day 14, Mean
[8] = 100 mg/dose Fed Cohort 2, Day 1 AM, Geo. Mean
[9] = 100 mg/dose Fed Cohort 2, Day 1 AM, Mean
[10] = 100 mg/dose Fed Cohort 2, Day 1 PM, Geo. Mean
[11] = 100 mg/dose Fed Cohort 2, Day 1 PM, Mean
[12] = 100 mg/dose Fed Cohort 2, Day 7 AM, Geo Mean
[13] = 100 mg/dose Fed Cohort 2, Day 7 AM, Mean
[14] = 100 mg/dose Fed Cohort 2, Day 7 PM, Geo Mean
[15] = 100 mg/dose Fed Cohort 2, Day 7 PM, Mean
[16] = 100 mg/dose Fed Cohort 2, Day 14, Geo Mean
[17] = 100 mg/dose Fed Cohort 2, Day 14, Mean
[18] = 200 mg/dose Fed Cohort 3, Day 1 AM, Geo Mean
[19] = 200 mg/dose Fed Cohort 3, Day 1 AM, Mean
[20] = 200 mg/dose Fed Cohort 3, Day 1 PM, Geo. Mean

Source text: Food effect was to be evaluated in Part 1, Period 2.
Pharmacokinetic data were to be summarized descriptively.

For CCOC(=O)[C@@H]1CC2(CCN(c3cc(O[C@H](c4ccc(Cl)cc4-c4ccccc4)C(F)(F)F)nc(N)n3)CC2)CN1 [KAR5585, (S)-ethyl 8-(2-amino-6-((R)-1-(5-chloro-[1,1′-biphenyl]-2-yl)-2,2,2-trifluoroethoxy)pyrimidin-4-yl)-2,8-diazaspiro[4.5]decane-3-carboxylate], the “half-life, Day 14” value (100 mg KAR5585 BID, fasted) was 2.49 h, the “time peak plasma concentrations were reached, Day 1” value (100 mg KAR5585 BID, fasted, Cohort 1) was 0.75 to 2.0 h and the “AUC0-12, Day 1” value [1] was 62.8 ng·h/mL. The “AUC0-24, Day 14” value [1] was 99.8 ng·h/mL, the “Mean CL/F, Day 1” value (100 mg KAR5585 BID, fed) was 2100 L/h and the “Mean steady-state CL/F, Day 14” value (100 mg KAR5585 BID, fed) was 880 L/h. The “mean apparent elimination half-life, Day 14” value (100 mg KAR5585 BID, fed) was 2.73 h, the “Cmax (peak mean concentration), Day 1” value [2] was 18.4 ng/mL and the “Cmax (peak mean concentration), Day 14” value [2] was 30 ng/mL. The “mean Cmax plasma concentrations, range on all dosing days” value [2] was 18.4 to 44.1 ng/mL, the “median time to peak plasma concentrations, range on all dosing days and times” value [2] was 0.75 to 4 h and the “AUC0-12, Day 1” value [3] was 55.5 ng·h/mL. For the same compound, the “AUC0-24, Day 14” value [3] was 122 ng·h/mL, the C12 [4] was “BLQ” and the CL/F [4] was 1850 L/h. The Cmax/D [4] was 0.158 (ng/mL)/mg, the AUC0-12 [5] was 62.8 ng·h/mL and the “AUC0-∞” value [5] was 71.1 ng·h/mL. The C12 [5] was “BLQ”, the CL/F [5] was 2380 L/h and the Cmax/D [5] was 0.167 (ng/mL)/mg. For the same compound, the t1/2 [5] was 2.23 h, the AUC0-12 [6] was 78.2 ng·h/mL and the AUC0-24 [6] was 82.3 ng·h/mL. For the same compound, the AUC0-24/D [6] was 0.823 (hr*ng/mL)/mg, the “AUC0-∞” value [6] was 85 ng·h/mL and the C24 [6] was “BLQ”. For the same compound, the CL/F [6] was 1280 L/h, the Cmax [6] was 20.1 ng/mL and the Cmax/D [6] was 0.201 (ng/mL)/mg. For the same compound, the t1/2 [6] was 2.36 h, the AUC0-12 [7] was 92.4 ng·h/mL and the AUC0-24 [7] was 99.8 ng·h/mL. The AUC0-24/D [7] was 0.998 (hr*ng/mL)/mg, the “AUC0-∞” value [7] was 105 ng·h/mL and the C24 [7] was “BLQ”. For the same compound, the CL/F [7] was 1450 L/h, the Cmax/D [7] was 0.213 (ng/mL)/mg and the t1/2 [7] was 2.49 h. For the same compound, the AUC0-12 [8] was 51.2 ng·h/mL, the “AUC0-∞” value [8] was 51.7 ng·h/mL and the C12 [8] was “BLQ”. The CL/F [8] was 1940 L/h, the Cmax [8] was 17.7 ng/mL and the Cmax/D [8] was 0.177 (ng/mL)/mg. The t1/2 [8] was 1.37 h, the AUC0-12 [9] was 55.5 ng·h/mL and the “AUC0-∞” value [9] was 55.9 ng·h/mL. For the same compound, the C12 [9] was “BLQ”, the CL/F [9] was 2100 L/h and the Cmax [9] was 18.4 ng/mL. For the same compound, the Cmax/D [9] was 0.184 (ng/mL)/mg, the t1/2 [9] was 1.42 h and the AUC0-12 [10] was 136 ng·h/mL. The AUC0-24 [10] was 214 ng·h/mL, the AUC0-24/D [10] was 1.07 (hr*ng/mL)/mg and the “AUC0-∞” value [10] was 152 ng·h/mL. For the same compound, the CL/F [10] was 658 L/h, the Cmax [10] was 39.8 ng/mL and the Cmax/D [10] was 0.398 (ng/mL)/mg. It also gave a t1/2 [10] of 1.82 h, an AUC0-12 [11] of 143 ng·h/mL and an AUC0-24 [11] of 226 ng·h/mL. For the same compound, the AUC0-24/D [11] was 1.13 (hr*ng/mL)/mg, the “AUC0-∞” value [11] was 156 ng·h/mL and the CL/F [11] was 675 L/h. For the same compound, the Cmax [11] was 44.1 ng/mL, the Cmax/D [11] was 0.441 (ng/mL)/mg and the t1/2 [11] was 1.87 h. For the same compound, the AUC0-12 [12] was 127 ng·h/mL, the “AUC0-∞” value [12] was 137 ng·h/mL and the C12 [12] was “BLQ”. For the same compound, the CL/F [12] was 788 L/h, the Cmax [12] was 29.8 ng/mL and the Cmax/D [12] was 0.298 (ng/mL)/mg. For the same compound, the t1/2 [12] was 2.82 h, the AUC0-12 [13] was 129 ng·h/mL and the “AUC0-∞” value [13] was 139 ng·h/mL. The C12 [13] was “BLQ”, the CL/F [13] was 800 L/h and the Cmax [13] was 31.3 ng/mL. The Cmax/D [13] was 0.313 (ng/mL)/mg, the t1/2 [13] was 2.86 h and the AUC0-12 [14] was 142 ng·h/mL. For the same compound, the AUC0-24 [14] was 278 ng·h/mL, the AUC0-24/D [14] was 1.39 (hr*ng/mL)/mg and the “AUC0-∞” value [14] was 168 ng·h/mL. For the same compound, the C12 [14] was 6.27 ng/mL, the CL/F [14] was 699 L/h and the Cmax [14] was 25.8 ng/mL. For the same compound, the Cmax/D [14] was 0.258 (ng/mL)/mg, the t1/2 [14] was 3.52 h and the AUC0-12 [15] was 145 ng·h/mL. The AUC0-24 [15] was 282 ng·h/mL, the AUC0-24/D [15] was 1.41 (hr*ng/mL)/mg and the “AUC0-∞” value [15] was 173 ng·h/mL. For the same compound, the CL/F [15] was 717 L/h, the Cmax/D [15] was 0.284 (ng/mL)/mg and the t1/2 [15] was 3.80 h. For the same compound, the AUC0-12 [16] was 114 ng·h/mL, the AUC0-24 [16] was 121 ng·h/mL and the AUC0-24/D [16] was 1.21 (hr*ng/mL)/mg. For the same compound, the “AUC0-∞” value [16] was 121 ng·h/mL, the C12 [16] was “BLQ” and the C24 [16] was “BLQ”. The CL/F [16] was 874 L/h, the Cmax [16] was 28.5 ng/mL and the Cmax/D [16] was 0.285 (ng/mL)/mg. It also gave a t1/2 [16] of 2.64 h, an AUC0-12 [17] of 115 ng·h/mL and an AUC0-24 [17] of 122 ng·h/mL. The AUC0-24/D [17] was 1.22 (hr*ng/mL)/mg, the “AUC0-∞” value [17] was 122 ng·h/mL and the C12 [17] was “BLQ”. The C24 [17] was “BLQ”, the CL/F [17] was 880 L/h and the Cmax [17] was 30.0 ng/mL. The Cmax/D [17] was 0.300 (ng/mL)/mg, the t1/2 [17] was 2.73 h and the “Mean CL/F, Day 1” value (200 mg KAR5585 BID, fed) was 830 L/h. The “Mean steady-state CL/F, Day 14” value (200 mg KAR5585 BID, fed) was 1200 L/h, the “mean Cmax plasma concentrations, range on all dosing days” value (200 mg KAR5585 BID, fed, Cohort 3) was 42.6 to 90.9 ng/mL and the AUC0-12 [18] was 243 ng·h/mL. For the same compound, the “AUC0-∞” value [18] was 258 ng·h/mL, the C12 [18] was 5.60 ng/mL and the CL/F [18] was 774 L/h. For the same compound, the Cmax [18] was 80.7 ng/mL, the Cmax/D [18] was 0.403 (ng/mL)/mg and the t1/2 [18] was 2.81 h. For the same compound, the AUC0-12 [19] was 257 ng·h/mL, the “AUC0-∞” value [19] was 275 ng·h/mL and the C12 [19] was 5.61 ng/mL. For the same compound, the CL/F [19] was 830 L/h, the Cmax [19] was 87.8 ng/mL and the Cmax/D [19] was 0.439 (ng/mL)/mg. The t1/2 [19] was 2.91 h, the AUC0-12 [20] was 333 ng·h/mL and the AUC0-24 [20] was 583 ng·h/mL. For the same compound, the AUC0-24/D [20] was 1.46 (hr*ng/mL)/mg.
